According to ChEMBL document CHEMBL4425141, “Design, Synthesis, and Identification of 4″α-Azidoethyl-cyclic ADP-Carbocyclic-ribose as a Highly Potent Analogue of Cyclic ADP-Ribose, a Ca(2+)-Mobilizing Second Messenger” (J Med Chem, 2016):

How the values were obtained:
[1] = (§1) Induction of calcium mobilization in sea urchin egg by fluorometry; format: functional, Hemicentrotus pulcherrimus
[2] = system: Hemicentrotus pulcherrimus; assay: as §1; format: functional

SMILES	EC50 [1] [nM]	Activity [2]
Nc1c2ncn3c2nc[n+]1[C@@H]1C[C@H](COP(=O)([O-])OP(=O)(O)OC[C@H]2O[C@@H]3[C@H](O)[C@@H]2O)[C@@H](O)[C@H]1O	54	
[N-]=[N+]=NCC[C@]12COP(=O)(O)OP(=O)([O-])OC[C@H]3O[C@H]([C@H](O)[C@@H]3O)n3cnc4c(N)[n+](cnc43)[C@H](C1)[C@H](O)[C@@H]2O	24	
Nc1c2ncn3c2nc[n+]1[C@@H]1O[C@H](COP(=O)([O-])OP(=O)(O)OC[C@H]2O[C@@H]3[C@H](O)[C@@H]2O)[C@@H](O)[C@H]1O	213	Dose-dependent effect
